# Experimental data taken from paper PMC5739597, “Discovery and evaluation of triple inhibitors of VEGFR-2, TIE-2 and EphB4 as anti-angiogenic and anti-cancer agents” (Oncotarget, 2017).
# pIC50: −log10 of the molar value. Values joined by “and” are separate entries in the source; they are usually repeats but may differ in a detail not shown here. Identical values can stand only once.
# Experiments:
# [1] = target: TIE-2 (Homo sapiens, UniProt Q02763); assay: ADP-Glo in vitro RTK inhibition assay, TIE-2; assay type: biochemical; conditions: ATP 50 μM
# Sequence of TIE-2 (Q02763 23-1124): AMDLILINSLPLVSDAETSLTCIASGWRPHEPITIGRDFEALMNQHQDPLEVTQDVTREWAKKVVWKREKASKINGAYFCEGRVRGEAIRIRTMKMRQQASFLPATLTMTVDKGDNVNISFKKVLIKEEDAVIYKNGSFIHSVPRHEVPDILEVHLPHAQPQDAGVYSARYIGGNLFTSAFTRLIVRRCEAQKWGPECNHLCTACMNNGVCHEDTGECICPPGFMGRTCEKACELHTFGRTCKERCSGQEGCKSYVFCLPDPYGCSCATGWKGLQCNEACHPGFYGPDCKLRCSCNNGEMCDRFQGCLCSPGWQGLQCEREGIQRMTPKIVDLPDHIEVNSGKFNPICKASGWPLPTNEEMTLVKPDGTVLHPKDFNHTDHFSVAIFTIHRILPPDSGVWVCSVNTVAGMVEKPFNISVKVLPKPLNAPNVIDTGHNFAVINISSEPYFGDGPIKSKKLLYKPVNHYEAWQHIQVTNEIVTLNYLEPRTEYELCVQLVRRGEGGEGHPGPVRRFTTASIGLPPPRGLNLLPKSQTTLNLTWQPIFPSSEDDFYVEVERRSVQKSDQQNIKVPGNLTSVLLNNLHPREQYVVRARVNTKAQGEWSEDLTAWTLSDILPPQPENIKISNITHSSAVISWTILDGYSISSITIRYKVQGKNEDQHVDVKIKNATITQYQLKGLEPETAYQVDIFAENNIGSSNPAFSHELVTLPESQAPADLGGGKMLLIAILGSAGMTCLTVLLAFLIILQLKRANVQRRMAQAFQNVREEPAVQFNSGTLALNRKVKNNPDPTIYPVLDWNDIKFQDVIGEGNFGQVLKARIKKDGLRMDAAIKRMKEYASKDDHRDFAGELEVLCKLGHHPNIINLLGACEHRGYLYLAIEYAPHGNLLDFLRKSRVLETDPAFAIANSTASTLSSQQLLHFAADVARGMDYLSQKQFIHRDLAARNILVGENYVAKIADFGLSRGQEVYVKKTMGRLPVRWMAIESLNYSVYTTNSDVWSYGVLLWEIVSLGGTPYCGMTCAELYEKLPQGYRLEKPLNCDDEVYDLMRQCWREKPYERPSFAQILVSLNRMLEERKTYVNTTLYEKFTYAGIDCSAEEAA
# Description: (§1) In order to validate the direct effect of title compounds on VEGFR-2, Tie-2, and EphB4 kinases, we performed in vitro assay using the ADP-Glo Kinase Assay Kit (Promega, Wisconsin, USA).
# (§2) The kinase assay was performed in a reaction mixture of final volume of 10 μL. […] The plate was incubated at 30°C for 1 h. After the plate was cooled at room temperature for 5 min, 5 μL of ADP-Glo reagent was added into each well to stop the reaction and consume the remaining […] within 40 min. At the end, 10 μL of kinase detection reagent was added into the well and incubated for 30 min to produce a luminescence signal. […] The assay plate was incubated at 30°C for 4 h. After the plate was cooled at room temperature for 5 min, 5 μL of ADP-Glo reagent was added into each well to stop the reaction and consume the remaining […] within 1 h. At the end, 10 μL of kinase detection reagent was added into each well and incubated for 30 min to produce a luminescence signal. The luminescence was read by VICTOR-X multi-label plate reader.
# [2] = target: T1, EphB4 (Homo sapiens, UniProt P54760); assay: ADP-Glo in vitro RTK inhibition assay, EphB4; assay type: biochemical; conditions: ATP 50 μM
# T1 sequence (P54760 16-987): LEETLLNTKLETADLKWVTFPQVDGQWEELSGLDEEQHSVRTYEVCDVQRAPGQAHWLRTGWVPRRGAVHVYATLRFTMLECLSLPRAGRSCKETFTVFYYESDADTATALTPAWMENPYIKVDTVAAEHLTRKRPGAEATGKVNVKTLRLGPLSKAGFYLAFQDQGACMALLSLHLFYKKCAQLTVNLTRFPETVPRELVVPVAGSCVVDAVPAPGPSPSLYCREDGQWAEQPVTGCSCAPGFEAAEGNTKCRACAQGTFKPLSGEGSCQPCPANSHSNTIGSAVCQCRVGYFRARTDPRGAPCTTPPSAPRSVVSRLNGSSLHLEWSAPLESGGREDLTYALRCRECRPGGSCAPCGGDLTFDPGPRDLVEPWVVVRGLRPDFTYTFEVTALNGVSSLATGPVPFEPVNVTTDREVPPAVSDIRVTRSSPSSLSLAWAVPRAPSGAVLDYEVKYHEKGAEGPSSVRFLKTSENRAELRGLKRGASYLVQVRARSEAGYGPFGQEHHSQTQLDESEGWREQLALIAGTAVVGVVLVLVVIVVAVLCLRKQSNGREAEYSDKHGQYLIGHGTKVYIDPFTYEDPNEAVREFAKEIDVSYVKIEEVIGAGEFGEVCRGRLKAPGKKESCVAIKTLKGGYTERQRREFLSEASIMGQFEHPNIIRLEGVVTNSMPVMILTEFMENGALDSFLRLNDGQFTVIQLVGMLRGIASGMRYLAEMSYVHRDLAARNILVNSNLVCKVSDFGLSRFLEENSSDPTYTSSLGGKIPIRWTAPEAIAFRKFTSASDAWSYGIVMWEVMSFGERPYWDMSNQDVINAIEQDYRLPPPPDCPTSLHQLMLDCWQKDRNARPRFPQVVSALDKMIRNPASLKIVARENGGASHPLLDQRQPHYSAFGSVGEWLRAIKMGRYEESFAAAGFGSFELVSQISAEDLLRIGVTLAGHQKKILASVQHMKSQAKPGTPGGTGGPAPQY
# Description: as §1, §2
# [3] = target: T2, VEGFR-2 (Homo sapiens, UniProt P35968); assay: ADP-Glo in vitro RTK inhibition assay, VEGFR-2; assay type: biochemical; conditions: ATP 50 μM
# T2 sequence (P35968 20-1356): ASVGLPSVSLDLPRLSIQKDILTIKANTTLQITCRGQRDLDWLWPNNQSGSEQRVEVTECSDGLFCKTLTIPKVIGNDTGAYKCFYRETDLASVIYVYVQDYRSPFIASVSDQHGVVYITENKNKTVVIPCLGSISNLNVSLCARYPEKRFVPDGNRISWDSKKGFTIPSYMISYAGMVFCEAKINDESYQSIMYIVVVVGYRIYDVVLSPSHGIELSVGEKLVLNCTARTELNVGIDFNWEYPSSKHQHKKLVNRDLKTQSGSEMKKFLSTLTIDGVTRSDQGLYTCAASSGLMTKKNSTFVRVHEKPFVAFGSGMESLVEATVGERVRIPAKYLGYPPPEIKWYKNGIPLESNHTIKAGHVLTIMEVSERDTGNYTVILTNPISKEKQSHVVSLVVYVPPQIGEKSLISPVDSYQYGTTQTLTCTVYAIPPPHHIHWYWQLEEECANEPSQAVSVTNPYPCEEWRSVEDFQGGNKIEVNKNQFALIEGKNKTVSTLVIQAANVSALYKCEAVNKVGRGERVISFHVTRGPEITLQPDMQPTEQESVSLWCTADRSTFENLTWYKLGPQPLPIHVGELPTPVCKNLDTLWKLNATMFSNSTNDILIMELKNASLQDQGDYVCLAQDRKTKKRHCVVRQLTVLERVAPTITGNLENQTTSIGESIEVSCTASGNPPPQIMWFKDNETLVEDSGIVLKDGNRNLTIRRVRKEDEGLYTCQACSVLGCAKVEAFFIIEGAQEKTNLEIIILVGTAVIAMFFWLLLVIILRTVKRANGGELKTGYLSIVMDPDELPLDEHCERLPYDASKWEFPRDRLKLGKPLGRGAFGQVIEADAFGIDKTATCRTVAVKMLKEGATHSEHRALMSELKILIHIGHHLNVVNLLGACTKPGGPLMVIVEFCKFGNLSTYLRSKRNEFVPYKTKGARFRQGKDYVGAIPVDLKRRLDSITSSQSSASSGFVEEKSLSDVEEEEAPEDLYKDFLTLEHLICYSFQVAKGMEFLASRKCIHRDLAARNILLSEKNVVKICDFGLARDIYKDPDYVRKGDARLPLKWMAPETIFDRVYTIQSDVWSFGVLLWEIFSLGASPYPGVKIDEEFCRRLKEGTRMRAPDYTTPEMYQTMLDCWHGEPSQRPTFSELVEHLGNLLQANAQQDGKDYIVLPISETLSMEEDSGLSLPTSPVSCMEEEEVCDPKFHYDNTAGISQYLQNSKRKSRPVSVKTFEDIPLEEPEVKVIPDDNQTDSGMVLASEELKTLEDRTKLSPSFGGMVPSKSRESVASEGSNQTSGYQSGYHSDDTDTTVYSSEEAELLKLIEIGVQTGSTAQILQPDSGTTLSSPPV
# Description: as §1, §2
# [4] = test system: EA.hy926; assay: Human endothelial cell (EA.hy926) viability assay, CCK-8; assay type: cell-based; conditions: Homo sapiens, EA.hy 926, 24 h, CCK-8, 24 h treatment; read-out: Inhibition of human endothelial cell viability, EA.hy926 IC50
# Description: In order to determine the anti-angiogenic effect of these multi-target inhibitors, we evaluated their effect on HECs (EA.hy926) viability using cell counting kit-8 (CCK-8) method.
# The viability of HECs (EA.hy926) was assessed using the cell counting kit-8 (CCK-8, Sigma, USA) assay according to the manufacturer's instruction. […] After incubation at 37°C for 48 h, the cells were treated with tested compounds at various concentrations for 24 h. Subsequently, premixed CCK-8 and medium (10 μL) were added into the 96-well plates to monitor cell viability and were incubated at 37°C for 2 h. The number of viable cells was assessed by measurement of absorbance at 450 nm by a microplate reader. The viability rate was calculated as experimental OD value/control OD value.
# [5] = test system: MCF-7 xenograft; assay: In vivo MCF-7 xenograft mice model; conditions: ig, 40 mg/kg daily, 21 days
# Description: Six-week old female BALB/c mice were purchased from Shanghai Laboratory Animal center of the Chinese Academy of Sciences and housed under aseptic and ventilated condition. The mice were inoculated by subcutaneous injection with MCF-7 cancer cells suspended in 5% saline. Tumor volume and weight were measured on alternate days. Body weights were monitored as an indicator of toxicity. […] Treatment started from the next day and continued for 21 days. All mice were killed at the end of the experiment, and subcutaneous tumors were removed and weighted.
# [6] = target: T2, VEGFR-2; assay: VEGFR-2/cell membrane chromatography (CMC) affinity evaluation; assay type: binding; conditions: flow rate 0.6 mL/min, 37°C, 5 mM PBS pH 7.4, 270 nm
# Description: In previous studies, artificial cultures highly expressing VEGFR-2 on HEK293 cell lines were constructed. […] Chromatographic conditions: 10 mm×2.0 mm; flow rate0.6 mL/min; column temperature 37°C; mobile phase 5 mM PBS, pH 7.4; detection wavelength 270 nm.
# The VEGFR-2 cell membrane stationary phase was prepared as previous reported. Aqueous ammonium acetate buffer solution (pH 7.4, 5 mM) was pumped at a flow rate of 0.2 mL/min as the mobile phase after VEGFR-2/CMC column was loaded onto the chromatography system at the temperature of 37°C. […] The mobile phase was 5.0 mM phosphate burred saline with a 0.6 mL/min flow rate at a column temperature of 37°C. The detected wavelength was 270 nm. The test compound was injected into the VEGFR-2/CMC column and their retention characteristics were identified to evaluate their affinity with VEGFR-2.
Compound,pIC50 [1],melting point,pIC50 [2],pIC50 [3],pIC50 [4],Final body weight [5],Tumor growth inhibition [5],Final tumor weight ([5]; control 0.848±0.5),Retention time on VEGFR-2/cell membrane stationary phase column [6]
"FC(F)(F)c1cc(Br)cc(NC(=S)Nc2ccc(-c3cccnc3)cc2)c1 [DATU1, N-[3-bromo-5-(trifluoromethyl)phenyl]-N’-(4-pyridin-3-ylphenyl)thiourea]",7.59,197 to 199 °C,7.70,7.69,–,–,–,–,–
"FC(F)(F)Oc1cc(Br)ccc1NC(=S)Nc1ccc(-c2cccnc2)cc1 [DATU2, N-[4-bromo-2-(trifluoromethoxy)phenyl]-N’-(4-pyridin-3-ylphenyl)thiourea]",7.19,144 to 145 °C,< 6.30,< 6.30,4.05,–,–,–,–
"FC(F)(F)Oc1ccc(NC(=S)Nc2ccc(-c3cccnc3)cc2)c(Br)c1 [DATU3, N-[2-bromo-4-(trifluoromethoxy)phenyl]-N’-(4-pyridin-3-ylphenyl)thiourea]",7.70,162 to 163 °C,7.66,< 6.30,3.91,–,–,–,–
"FC(F)(F)Oc1ccc(Br)cc1NC(=S)Nc1ccc(-c2cccnc2)cc1 [DATU4, N-[5-bromo-2-(trifluoromethoxy)phenyl]-N’-(4-pyridin-3-ylphenyl)thiourea]",< 6.30,154 to 155 °C,7.73,< 6.30,4.35,–,–,–,–
"FC(F)(F)Oc1ccc(Br)c(NC(=S)Nc2ccc(-c3cccnc3)cc2)c1 [DATU5, N-[2-bromo-5-(trifluoromethoxy)phenyl]-N’-(4-pyridin-3-ylphenyl)thiourea]",< 6.30,125 to 126 °C,7.27,< 6.30,3.61,–,–,–,–
"S=C(Nc1ccc(-c2cccnc2)cc1)Nc1ccc(Cl)cc1Cl [DATU6, N-(2,4-dichlorophenyl)-N’-(4-pyridin-3-ylphenyl)thiourea]",7.18,156 to 157 °C,8.41,7.63,4.61,–,–,–,–
"Fc1ccc(NC(=S)Nc2ccc(-c3cccnc3)cc2)cc1F [DATU7, N-(3,4-difluorophenyl)-N’-(4-pyridin-3-ylphenyl)thiourea]",7.32,139 to 140 °C,8.00,7.34,4.02,–,–,–,–
"S=C(Nc1ccc(-c2cccnc2)cc1)Nc1ccc(Cl)c(Cl)c1 [DATU8, N-(3,4-dichlorophenyl)-N’-(4-pyridin-3-ylphenyl)thiourea]",8.03,173 to 175 °C,< 6.30,6.45,3.99,–,–,–,–
"FC(F)(F)c1cc(NC(=S)Nc2ccc(-c3cccnc3)cc2)cc(C(F)(F)F)c1 [DATU9, N-[3,5-bis(trifluoromethyl)phenyl]-N’-(4-pyridin-3-ylphenyl)thiourea]",< 6.30,157 to 158 °C,< 6.30,< 6.30,3.78,–,–,–,–
"S=C(Nc1ccc(-c2cccnc2)cc1)Nc1ccc2c(c1)OCO2 [DATU10, N-1,3-benzodioxol-5-yl-N’-(4-pyridin-3-ylphenyl)thiourea]",< 6.30,147 to 148 °C,< 6.30,7.69,4.04,–,–,–,–
"O=C(Nc1ccc(-c2ccc3c(=O)[nH]cnc3c2)cc1)Nc1cccc(C(F)(F)F)c1 [QDAU1, 1-(4-(4-oxo-3,4-dihydroquinazolin-7-yl)phenyl)-3-(3-(trifluoromethyl)phenyl)urea]",7.15,–,< 6.30,6.71,4.24,–,–,–,–
"O=C(Nc1ccc(-c2ccc3c(=O)[nH]cnc3c2)cc1)Nc1cccc(Cl)c1 [QDAU2, 1-(3-chlorophenyl)-3-(4-(4-oxo-3,4-dihydroquinazolin-7-yl)phenyl)urea]",7.08,> 300 °C,< 6.30,7.24,4.18,–,–,–,–
"O=C(Nc1ccc(-c2ccc3c(=O)[nH]cnc3c2)cc1)Nc1cccc(F)c1 [QDAU3, 1-(3-fluorophenyl)-3-(4-(4-oxo-3,4-dihydroquinazolin-7-yl)phenyl)ure]",7.04,> 300 °C,8.25,< 6.30,4.37,–,–,–,–
"O=C(Nc1ccc(F)cc1)Nc1ccc(-c2ccc3c(=O)[nH]cnc3c2)cc1 [QDAU6, 1-(4-fluorophenyl)-3-(4-(4-oxo-3,4-dihydroquinazolin-7-yl)phenyl)urea]",7.00,> 300 °C,< 6.30,8.20,3.59,–,–,–,–
"O=C(Nc1ccc(OC(F)(F)F)cc1)Nc1ccc(-c2ccc3c(=O)[nH]cnc3c2)cc1 [QDAU7, 1-(4-(4-oxo-3,4-dihydroquinazolin-7-yl)phenyl)-3-(4-(trifluoromethoxy)phenyl)urea]",6.59,> 300 °C,< 6.30,< 6.30,4.16,–,–,–,–
"CC(C)c1cccc(NC(=O)Nc2ccc(-c3ccc4c(=O)[nH]cnc4c3)cc2)c1 [QDAU8, 1-(3-isopropylphenyl)-3-(4-(4-oxo-3,4-dihydroquinazolin-7-yl)phenyl)urea]",< 6.30,> 300 °C,< 6.30,7.38,4.12,–,–,–,–
"O=C(Nc1ccc(-c2ccc3c(=O)[nH]cnc3c2)cc1)Nc1ccc(Cl)c(C(F)(F)F)c1 [QDAU9, 1-(4-chloro-3-(trifluoromethyl)phenyl)-3-(4-(4-oxo-3,4-dihydroquinazolin-7-yl)phenyl)urea]",7.71,> 300 °C,7.61,7.80,4.89,–,–,–,–
"O=C(Nc1ccc(-c2ccc3c(=O)[nH]cnc3c2)cc1)Nc1ccc(C(F)(F)F)cc1 [QDAU10, 1-(4-(4-oxo-3,4-dihydroquinazolin-7-yl)phenyl)-3-(4-(trifluoromethyl)phenyl)urea]",7.28,> 300 °C,< 6.30,7.29,3.90,–,–,–,–
"CNC(=O)c1cc(Oc2ccc(NC(=O)Nc3ccc(Cl)c(C(F)(F)F)c3)cc2)ccn1 [Sorafenib, sorafenib, reference compound]",–,–,–,–,–,16.8 ± 0.9 g,53%,0.398 ± 0.8 g,–
"CNC(=O)c1cc(Oc2ccc(NC(=O)Nc3ccc(Cl)c(C(F)(F)F)c3)c(F)c2)ccn1 [regorafenib, reference compound]",–,–,–,–,–,–,–,–,11 min and 10.6 min
